Measured values: the NIST ThermoML archive (doi:10.1016/j.jct.2004.12.008)

Experiment: xn = mol fraction of the nth substance listed
Conditions: 101 kPa, Liquid

O=[N+]([O-])c1ccccc1 [nitrobenzene] + CCc1ccccc1
Conditions | mass density [kg/m3]
293.15 K, x2 = 0 | 1202.95
293.15 K, x2 = 0.0478 | 1184.56
293.15 K, x2 = 0.1275 | 1154.51
293.15 K, x2 = 0.1842 | 1133.58
293.15 K, x2 = 0.2576 | 1107.04
293.15 K, x2 = 0.3238 | 1083.6
293.15 K, x2 = 0.4023 | 1056.42
293.15 K, x2 = 0.4578 | 1037.57
293.15 K, x2 = 0.5139 | 1018.83
293.15 K, x2 = 0.5813 | 996.7
293.15 K, x2 = 0.6423 | 977.03
293.15 K, x2 = 0.6931 | 960.9
293.15 K, x2 = 0.7592 | 940.24
293.15 K, x2 = 0.8343 | 917.18
293.15 K, x2 = 0.8824 | 902.65
293.15 K, x2 = 0.9587 | 879.94
303.15 K, x2 = 0 | 1193.56
303.15 K, x2 = 0.054 | 1172.67
303.15 K, x2 = 0.1213 | 1147.16
303.15 K, x2 = 0.1983 | 1118.67
303.15 K, x2 = 0.2489 | 1100.34
303.15 K, x2 = 0.3138 | 1077.25
303.15 K, x2 = 0.3854 | 1052.32
303.15 K, x2 = 0.4428 | 1032.74
303.15 K, x2 = 0.5098 | 1010.3
303.15 K, x2 = 0.5721 | 989.85
303.15 K, x2 = 0.6219 | 973.76
303.15 K, x2 = 0.6839 | 954.06
303.15 K, x2 = 0.7429 | 935.62
303.15 K, x2 = 0.8013 | 917.67
303.15 K, x2 = 0.8632 | 898.94
303.15 K, x2 = 0.9328 | 878.24
313.15 K, x2 = 0 | 1183.37
313.15 K, x2 = 0.0538 | 1162.71
313.15 K, x2 = 0.1387 | 1130.89
313.15 K, x2 = 0.1932 | 1110.93
313.15 K, x2 = 0.2378 | 1094.87
313.15 K, x2 = 0.2947 | 1074.72
313.15 K, x2 = 0.3571 | 1053.04
313.15 K, x2 = 0.4139 | 1033.68
313.15 K, x2 = 0.4917 | 1007.73
313.15 K, x2 = 0.5523 | 987.93
313.15 K, x2 = 0.6139 | 968.18
313.15 K, x2 = 0.6731 | 949.53
313.15 K, x2 = 0.7248 | 933.5
313.15 K, x2 = 0.7932 | 912.63
313.15 K, x2 = 0.8536 | 894.54
313.15 K, x2 = 0.9248 | 873.58
323.15 K, x2 = 0 | 1172.38
323.15 K, x2 = 0.0617 | 1149.22
323.15 K, x2 = 0.1482 | 1117.58
323.15 K, x2 = 0.2213 | 1091.54
323.15 K, x2 = 0.2787 | 1071.53
323.15 K, x2 = 0.3234 | 1056.2
323.15 K, x2 = 0.3781 | 1037.74
323.15 K, x2 = 0.4344 | 1019.07
323.15 K, x2 = 0.4822 | 1003.47
323.15 K, x2 = 0.5339 | 986.86
323.15 K, x2 = 0.592 | 968.49
323.15 K, x2 = 0.6739 | 943.12
323.15 K, x2 = 0.7429 | 922.2
323.15 K, x2 = 0.8137 | 901.15
323.15 K, x2 = 0.8735 | 883.68
323.15 K, x2 = 0.9572 | 859.66
333.15 K, x2 = 0 | 1160.59
333.15 K, x2 = 0.0439 | 1144.65
333.15 K, x2 = 0.1249 | 1115.84
333.15 K, x2 = 0.1892 | 1093.51
333.15 K, x2 = 0.2599 | 1069.48
333.15 K, x2 = 0.3389 | 1043.25
333.15 K, x2 = 0.4042 | 1022.06
333.15 K, x2 = 0.4672 | 1002.01
333.15 K, x2 = 0.5243 | 984.15
333.15 K, x2 = 0.5902 | 963.91
333.15 K, x2 = 0.6645 | 941.54
333.15 K, x2 = 0.7309 | 921.93
333.15 K, x2 = 0.8021 | 901.28
333.15 K, x2 = 0.8623 | 884.12
333.15 K, x2 = 0.8932 | 875.4
333.15 K, x2 = 0.9621 | 856.21
343.15 K, x2 = 0 | 1148
343.15 K, x2 = 0.0535 | 1129.57
343.15 K, x2 = 0.1122 | 1109.7
343.15 K, x2 = 0.1834 | 1086.08
343.15 K, x2 = 0.2478 | 1065.16
343.15 K, x2 = 0.3044 | 1047.11
343.15 K, x2 = 0.3782 | 1024
343.15 K, x2 = 0.4519 | 1001.42
343.15 K, x2 = 0.513 | 983.04
343.15 K, x2 = 0.5801 | 963.22
343.15 K, x2 = 0.6529 | 942.11
343.15 K, x2 = 0.7238 | 921.93
343.15 K, x2 = 0.7932 | 902.5
343.15 K, x2 = 0.852 | 886.31
343.15 K, x2 = 0.8932 | 875.09
343.15 K, x2 = 0.9423 | 861.85
353.15 K, x2 = 0 | 1134.61
353.15 K, x2 = 0.0723 | 1111.4
353.15 K, x2 = 0.1298 | 1093.3
353.15 K, x2 = 0.1984 | 1072.07
353.15 K, x2 = 0.2584 | 1053.83
353.15 K, x2 = 0.3133 | 1037.4
353.15 K, x2 = 0.3891 | 1015.12
353.15 K, x2 = 0.4501 | 997.51
353.15 K, x2 = 0.524 | 976.53
353.15 K, x2 = 0.5818 | 960.38
353.15 K, x2 = 0.663 | 938.08
353.15 K, x2 = 0.7483 | 915.1
353.15 K, x2 = 0.7964 | 902.32
353.15 K, x2 = 0.8423 | 890.26
353.15 K, x2 = 0.8893 | 878.02
353.15 K, x2 = 0.9529 | 861.65

O=[N+]([O-])c1ccccc1 [nitrobenzene] + Cc1ccc(C)cc1
Conditions | mass density [kg/m3]
293.15 K, x2 = 0 | 1202.95
293.15 K, x2 = 0.0587 | 1179.74
293.15 K, x2 = 0.1232 | 1154.82
293.15 K, x2 = 0.1933 | 1128.38
293.15 K, x2 = 0.2516 | 1106.86
293.15 K, x2 = 0.3298 | 1078.63
293.15 K, x2 = 0.3891 | 1057.67
293.15 K, x2 = 0.4423 | 1039.19
293.15 K, x2 = 0.4983 | 1020.04
293.15 K, x2 = 0.5512 | 1002.23
293.15 K, x2 = 0.6242 | 978.08
293.15 K, x2 = 0.6943 | 955.34
293.15 K, x2 = 0.7523 | 936.85
293.15 K, x2 = 0.8211 | 915.28
293.15 K, x2 = 0.8723 | 899.49
293.15 K, x2 = 0.9421 | 878.29
303.15 K, x2 = 0 | 1193.56
303.15 K, x2 = 0.0623 | 1168.84
303.15 K, x2 = 0.1123 | 1149.43
303.15 K, x2 = 0.1823 | 1122.85
303.15 K, x2 = 0.2429 | 1100.38
303.15 K, x2 = 0.3189 | 1072.84
303.15 K, x2 = 0.3894 | 1047.9
303.15 K, x2 = 0.4376 | 1031.16
303.15 K, x2 = 0.4889 | 1013.63
303.15 K, x2 = 0.5321 | 999.06
303.15 K, x2 = 0.6078 | 973.98
303.15 K, x2 = 0.6731 | 952.79
303.15 K, x2 = 0.7561 | 926.4
303.15 K, x2 = 0.8247 | 905.05
303.15 K, x2 = 0.8871 | 885.97
303.15 K, x2 = 0.9316 | 872.57
313.15 K, x2 = 0 | 1183.36
313.15 K, x2 = 0.0598 | 1159.6
313.15 K, x2 = 0.1342 | 1130.81
313.15 K, x2 = 0.1732 | 1116.05
313.15 K, x2 = 0.2311 | 1094.53
313.15 K, x2 = 0.3239 | 1060.94
313.15 K, x2 = 0.3971 | 1035.18
313.15 K, x2 = 0.4576 | 1014.35
313.15 K, x2 = 0.514 | 995.29
313.15 K, x2 = 0.5672 | 977.61
313.15 K, x2 = 0.6234 | 959.24
313.15 K, x2 = 0.6831 | 940.06
313.15 K, x2 = 0.7421 | 921.43
313.15 K, x2 = 0.7901 | 906.5
313.15 K, x2 = 0.8611 | 884.8
313.15 K, x2 = 0.9287 | 864.54
323.15 K, x2 = 0 | 1172.38
323.15 K, x2 = 0.048 | 1153.29
323.15 K, x2 = 0.1243 | 1123.72
323.15 K, x2 = 0.1892 | 1099.28
323.15 K, x2 = 0.2572 | 1074.3
323.15 K, x2 = 0.3249 | 1050.03
323.15 K, x2 = 0.4023 | 1022.99
323.15 K, x2 = 0.4683 | 1000.47
323.15 K, x2 = 0.5138 | 985.24
323.15 K, x2 = 0.5871 | 961.14
323.15 K, x2 = 0.6422 | 943.39
323.15 K, x2 = 0.7139 | 920.72
323.15 K, x2 = 0.7811 | 899.92
323.15 K, x2 = 0.8428 | 881.17
323.15 K, x2 = 0.8781 | 870.6
323.15 K, x2 = 0.9424 | 851.62
333.15 K, x2 = 0 | 1160.59
333.15 K, x2 = 0.0668 | 1134.27
333.15 K, x2 = 0.1235 | 1112.51
333.15 K, x2 = 0.1983 | 1084.57
333.15 K, x2 = 0.2547 | 1064.03
333.15 K, x2 = 0.3133 | 1043.14
333.15 K, x2 = 0.3942 | 1015.02
333.15 K, x2 = 0.4789 | 986.4
333.15 K, x2 = 0.5287 | 969.96
333.15 K, x2 = 0.5902 | 950.01
333.15 K, x2 = 0.6517 | 930.44
333.15 K, x2 = 0.7244 | 907.78
333.15 K, x2 = 0.7923 | 887.08
333.15 K, x2 = 0.8321 | 875.13
333.15 K, x2 = 0.8832 | 860
333.15 K, x2 = 0.9329 | 845.51
343.15 K, x2 = 0 | 1147.99
343.15 K, x2 = 0.0623 | 1123.65
343.15 K, x2 = 0.1324 | 1097.02
343.15 K, x2 = 0.1824 | 1078.5
343.15 K, x2 = 0.2561 | 1051.86
343.15 K, x2 = 0.3249 | 1027.65
343.15 K, x2 = 0.3867 | 1006.43
343.15 K, x2 = 0.4562 | 983.11
343.15 K, x2 = 0.5139 | 964.17
343.15 K, x2 = 0.5719 | 945.49
343.15 K, x2 = 0.6317 | 926.6
343.15 K, x2 = 0.691 | 908.21
343.15 K, x2 = 0.7613 | 886.86
343.15 K, x2 = 0.8312 | 866.07
343.15 K, x2 = 0.8931 | 848.03
343.15 K, x2 = 0.9537 | 830.69
353.15 K, x2 = 0 | 1134.61
353.15 K, x2 = 0.0479 | 1116.05
353.15 K, x2 = 0.1123 | 1091.72
353.15 K, x2 = 0.1742 | 1068.95
353.15 K, x2 = 0.2498 | 1041.91
353.15 K, x2 = 0.3013 | 1023.94
353.15 K, x2 = 0.3781 | 997.79
353.15 K, x2 = 0.4538 | 972.7
353.15 K, x2 = 0.5247 | 949.8
353.15 K, x2 = 0.6149 | 921.44
353.15 K, x2 = 0.662 | 906.96
353.15 K, x2 = 0.7137 | 891.32
353.15 K, x2 = 0.7832 | 870.68
353.15 K, x2 = 0.8312 | 856.69
353.15 K, x2 = 0.8813 | 842.3
353.15 K, x2 = 0.9422 | 825.1
